This is an account of results in paper PMC5431883, “Enhancing Specific Disruption of Intracellular Protein Complexes by Hydrocarbon Stapled Peptides Using Lipid Based Delivery” (Scientific Reports, 2017).

The target in one series is T1, Mdm2:p53 complex (Homo sapiens, UniProt Q00987).
T1 construct: host or cells: HEK293
Nature of the series: NanoBRET Mdm2:p53 live cell assay. The conditions noted are these: HEK293 cells, 0% FCS versus 10% FCS. It counts as cell-based. The method, then: all competitive types of experiments, it is assumed that [P]t > [L]st, otherwise considerable amounts of free labeled ligand would always be present and would interfere with measurements. Kd1 is the […]
experimentally determined as described in the previous paragraph. The FAM-labeled peptide was dissolved in dimethyl sulfoxide (DMSO) at 1 mM and diluted into experimental buffer. Readings were carried out with an Envision Multilabel Reader (PerkinElmer). Experiments were carried out […]
Tween 20 buffer. All titrations were carried out in triplicate. Curve-fitting was carried out using […]
Negative control titrations of the ligands under investigation were also carried out with the fluorescently labeled peptide (in the absence of MDM2) to ensure no interactions were occurring between the ligands and FAM-labeled peptide. […]
which would otherwise indicate an unintended interaction between the ligand and the FAM-labeled peptide to be displaced from the MDM2 binding site.
Nanobret Mdm2:p53 Cell Based Assay
HEK293 cells were seeded at a cell density of 250,000 cells per well into a 6 well plate and incubated overnight at 37 °C and 5% CO2 in DMEM with 0.3 mg/ml glutamine, 100 IU/ml penicillin, 100 μg/ml streptomycin and 10% fetal calf serum. Each well was transfected with a […]

For a further series, the system named is T22 p53 reporter cells. Nature of the series: p53 gene reporter assay (β-galactosidase) in T22 cells. The format is cell-based, murine. The conditions noted are these: 18 h, 1% DMSO, normalised to 25 µM Nutlin, 4 parameter fit to 10 point titration.
The next series deals with HEK293 cells. Nature of the series: Lactate dehydrogenase (LDH) release assay in HEK293 cells. The format is cell-based. The conditions noted are these: 2 hour treatment, 12.5, 25 and 50 µM, normalised to 0.1% Triton X100 (Figure S1); for LDH release in HEK293 cells, absence of serum (in words): 0% FCS; for LDH release in HEK293 cells, high serum conditions (in words): 10% FCS. Here is the method: T22 cells or HEK 293 cells were seeded into a 96-well plate at a cell density of 5000 cells per well. Cells were maintained in Dulbecco’s Minimal Eagle Medium (DMEM) with 10% fetal bovine serum (FBS) and 1% (v/v) penicillin/streptomycin. The cells were incubated for 24 hours followed by cell media removal and addition of 90 µl of DMEM either with or without 10% FCS. Cells were then treated with compounds/peptide for 2 hours in DMEM with or without 10% FBS. Final working concentration of DMSO was 1% v/v. Corresponding negative control wells with 1% DMSO only were also prepared. Cytosolic lactate dehydrogenase release was detected using the cytoTox 96® non-radioactive cytotoxicity Assay kit (Promega) as per manufacturer’s instructions. Measurements were carried out using an Envision multiplate reader (Perkin-Elmer). Maximum LDH release was defined as the amount of LDH released when cells were lysed in the presence of 0.1% TRITON X-100 and was used to normalize the results. […]
to induce LDH release in HEK293 cells after a 2 hour treatment period in A) the absence of FCS and B) the presence of 10% FCS. Compounds were tested at concentrations of 12.5 µM, 25 µM and 50 µM. Results were normalized to maximal LDH release as measured by treatment with 0.1% Triton X100.
(1 picture or pasted object on this page, not shown here)

The target in another series is T2, Mdm2 (1-125) (Homo sapiens, UniProt Q00987).
T2 construct: Purified MDM2 (1-125) protein was titrated against 50 nM carboxyfluorescein (FAM)-labeled; GST (N, cleaved yes); made in house; host or cells: E. coli BL21 DE3 (pGEX-6P-1)
T2 sequence (Q00987 1-125): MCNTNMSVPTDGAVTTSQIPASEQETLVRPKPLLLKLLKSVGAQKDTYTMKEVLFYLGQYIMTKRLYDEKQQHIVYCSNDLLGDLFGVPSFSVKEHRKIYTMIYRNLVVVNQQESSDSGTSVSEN
The series is described as follows: Mdm2 competitive fluorescence anisotropy assay (FAM-labeled 12/1 peptide displacement). It counts as binding.

For a further series, the system named is T22 cells. The series is described as follows: Lactate dehydrogenase (LDH) release assay in T22 cells. It counts as cell-based, murine. The settings on record: for LDH Release (T22 Cells), 0% FCS (LDH50) / LDH Release (T22 Cells), 10% FCS (LDH50): 2 h treatment, normalised to 0.1% Triton X-100 lysis, 4 parameter fit to 10 point titration. The method, then: T22 cells or HEK 293 cells were seeded into a 96-well plate at a cell density of 5000 cells per well. Cells were maintained in Dulbecco’s Minimal Eagle Medium (DMEM) with 10% fetal bovine serum (FBS) and 1% (v/v) penicillin/streptomycin. The cells were incubated for 24 hours followed by cell media removal and addition of 90 µl of DMEM either with or without 10% FCS. Cells were then treated with compounds/peptide for 2 hours in DMEM with or without 10% FBS. Final working concentration of DMSO was 1% v/v. Corresponding negative control wells with 1% DMSO only were also prepared. Cytosolic lactate dehydrogenase release was detected using the cytoTox 96® non-radioactive cytotoxicity Assay kit (Promega) as per manufacturer’s instructions. Measurements were carried out using an Envision multiplate reader (Perkin-Elmer). Maximum LDH release was defined as the amount of LDH released when cells were lysed in the presence of 0.1% TRITON X-100 and was used to normalize the results.

“Also recorded” adds a separate entry of the source. Read-outs that look alike come from different tables or passages of the source. Positions of bridges follow the written chain, without caps; N, C: chain ends. Non-standard residues stand in square brackets, D forms with d. Residues, ends and D or L forms follow the SMILES beside them. R8 = C=CCCCCCC[C@@](C)(N)C(=O)O; S5 = C=CCCC[C@](C)(N)C(=O)O; Ahx = NCCCCCC(=O)O

T1 sequence (Q00987 whole entry, one chain of several): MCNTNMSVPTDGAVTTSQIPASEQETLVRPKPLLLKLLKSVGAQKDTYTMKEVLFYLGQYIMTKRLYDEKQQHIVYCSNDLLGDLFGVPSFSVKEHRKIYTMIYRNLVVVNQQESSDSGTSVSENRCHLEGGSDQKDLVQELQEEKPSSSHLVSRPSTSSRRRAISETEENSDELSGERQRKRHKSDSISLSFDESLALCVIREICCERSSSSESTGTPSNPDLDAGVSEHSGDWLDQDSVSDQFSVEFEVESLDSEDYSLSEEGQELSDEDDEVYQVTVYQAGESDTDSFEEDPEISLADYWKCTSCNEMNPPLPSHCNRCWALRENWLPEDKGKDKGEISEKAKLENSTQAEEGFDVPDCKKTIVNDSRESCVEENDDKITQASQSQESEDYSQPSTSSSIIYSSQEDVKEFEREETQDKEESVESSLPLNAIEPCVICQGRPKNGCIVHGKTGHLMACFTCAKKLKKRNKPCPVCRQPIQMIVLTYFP
Experimental for T22 p53 reporter cells: T22 cells, which were stably transfected with a p53 responsive β-galactosidase reporter, were seeded into a 96-well plate at a cell density of 8000 cells per well. Cells were also maintained in Dulbecco’s Minimal Eagle Medium (DMEM) with 10% fetal calf serum (FCS) and 1% (v/v) penicillin/streptomycin. The cells were incubated for 24 hours and followed by cell media removal and replacement with 90 µl of fresh DMEM either containing 10% FCS or 0% FCS. 10 µl of each compound was then added directly to each well and incubated for 18 hours. Final working concentration of DMSO was 1% v/v. […] Measurements were carried out using an Envision multiplate reader (Perkin-Elmer). […] This was then used to normalize the experimental results.

For the compound `CC(=O)N[C@@H](CCCCN)C(=O)N[C@@H](CCCCN)C(=O)NCCCCCC(=O)N[C@H](C(=O)N[C@@H](CO)C(=O)N[C@@H](Cc1ccccc1)C(=O)N[C@]1(C)CCCCCCC=CCCC[C@@](C)(C(=O)N[C@@H](CCC(=O)O)C(=O)N[C@@H](CC(N)=O)C(=O)N[C@@H](Cc2ccccc2)C(N)=O)NC(=O)[C@H](CC(C)C)NC(=O)[C@H](CC(C)C)NC(=O)[C@H](C)NC(=O)[C@H](Cc2c[nH]c3ccccc23)NC(=O)[C@H](Cc2ccc(O)cc2)NC(=O)[C@H](CCC(=O)O)NC1=O)[C@@H](C)O` [VIP-82] (Ac-KK[Ahx]TSF[R8]EYWALL[S5]ENF-NH2; staple 7-14), at Mdm2:p53 complex, the “improvement of NanoBRET IC50 in serum free conditions over high serum conditions” value is 4.5 fold. For the same compound, the EC50 with T22 p53 reporter cells (0% FCS, read-out: P53 Activation (T22 Cells), 0% FCS (p53ACT50 / EC50)) was determined as 800 ± 100 nM. The EC50 in the series with T22 p53 reporter cells (read-out: P53 Activation (T22 Cells), 10% FCS (p53ACT50 / EC50), 10% FCS) turned out to be 10000 ± 100 nM. Moreover, in the series with HEK293 cells, the “LDH release in HEK293 cells, absence of serum (in words)” value is given as “remained inert” and the “LDH release in HEK293 cells, high serum conditions (in words)” value is listed as “absence of LDH release”. Further, the “improvement in affinity for Mdm2 over the library template sequence (sMTIDE-02)” value on Mdm2 (1-125) is given as 2 fold. Further, the Kd on Mdm2 (1-125) (competitive fluorescence anisotropy, text refers to Table S1, read-out: Kd for binding to Mdm2 (as quoted in the text from Table S1)) came to 24.4 ± 2.3 nM. Besides, in the series with T22 cells, the “LDH Release (T22 Cells), 0% FCS (LDH50)” value was “did not cause any measurable LDH release; also recorded: No release” and the “LDH Release (T22 Cells), 10% FCS (LDH50)” value is “No release”.
In the case of `CC(=O)N[C@H](C(=O)N[C@@H](CO)C(=O)N[C@@H](Cc1ccccc1)C(=O)N[C@]1(C)CCCCCCC=CCCC[C@@](C)(C(N)=O)NC(=O)[C@H](CC(C)C)NC(=O)[C@H](CC(C)C)NC(=O)[C@H](C)NC(=O)[C@H](Cc2c[nH]c3ccccc23)NC(=O)[C@H](Cc2ccc(O)cc2)NC(=O)[C@H](CCC(=O)O)NC1=O)[C@@H](C)O` [sMTIDE-02], on Mdm2:p53 complex, the “improvement of NanoBRET IC50 in serum free conditions over high serum conditions” value is 9 fold. In the series on HEK293 cells, the “LDH release in HEK293 cells, absence of serum (in words)” value is given as “induced significant amounts of LDH release” and the “LDH release in HEK293 cells, high serum conditions (in words)” value is listed as “absence of LDH release”. For the same compound, in the series with T22 cells, the “LDH Release (T22 Cells), 0% FCS (LDH50)” value came to 50.5 ± 1.7 µM and the “LDH Release (T22 Cells), 10% FCS (LDH50)” value is on record as “No release”. Further, the “cytotoxicity (LDH leakage) in the library screen, absence of serum (in words)” value in the series with T22 cells (absence of serum, within 2 hours after treatment) is recorded as “induced LDH leakage”.
